Source: patent US7138361B2, “Herbicidal heterocycles” (E. I. du Pont de Nemours and Company, priority 2000, dated 2006)

Legend:
Assay type in all cases: in vivo
[1] = test system: morning glory (Ipomoea hederacea); assay: Test B postemergence; conditions: 13 to 15 days
Outline: (§1)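 Post-treatment, species sat 13–15 days under greenhouse conditions before visual scoring against controls, 0 (no effect) through 100 (complete control). Application preemergence to sown seeds or postemergence at 1- to 4-leaf stage, using a non-phytotoxic solvent/surfactant formulation.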

[2] = test system: pigweed (Amaranthus retroflexus); assay: Test B postemergence; conditions: 13 to 15 days
Outline: as §1

corn (Zea mays) [3] = assay: Test B postemergence; conditions: 13 to 15 days
Outline: as §1

[4] = test system: lambsquarters (Chenopodium album); assay: Test B postemergence; conditions: 13 to 15 days
Outline: as §1

[5] = test system: blackgrass (Alopecurus myosuroides); assay: Test B postemergence; conditions: 13 to 15 days
Outline: as §1

[6] = test system: cocklebur (Xanthium strumarium); assay: Test B postemergence; conditions: 13 to 15 days
Outline: as §1

[7] = test system: wheat (Triticum aestivum); assay: Test B postemergence; conditions: 13 to 15 days
Outline: as §1

[8] = test system: velvetleaf (Abutilon theophrasti); assay: Test B postemergence; conditions: 13 to 15 days
Outline: as §1

wild oat (Avena fatua) = assay: Test B postemergence; conditions: 13 to 15 days
Outline: as §1

[9] = test system: Surinam grass (Brachiaria decumbens); assay: Test B postemergence; conditions: 13 to 15 days
Outline: as §1

[10] = test system: giant foxtail (Setaria faberii); assay: Test B postemergence; conditions: 13 to 15 days
Outline: as §1

[11] = test system: barnyardgrass (Echinochloa crus-galli); assay: Test B postemergence; conditions: 13 to 15 days
Outline: as §1

[12] = test system: crabgrass (Digitaria sanguinalis); assay: Test B postemergence; conditions: 13 to 15 days
Outline: as §1

[13] = test system: morning glory (Ipomoea hederacea); assay: Test B preemergence; conditions: Preemergence, Rate 500 g/ha; scale 0 to 100, 0 no effect, 100 complete control
Outline: as §1

[14] = test system: pigweed (Amaranthus retroflexus); assay: Test B preemergence; conditions: Preemergence, Rate 500 g/ha; scale 0 to 100, 0 no effect, 100 complete control
Outline: as §1

corn (Zea mays) [15] = assay: Test B preemergence; conditions: scale 0 to 100, 0 no effect, 100 complete control
Outline: as §1

[16] = test system: lambsquarters (Chenopodium album); assay: Test B preemergence; conditions: scale 0 to 100, 0 no effect, 100 complete control
Outline: as §1

[17] = test system: cocklebur (Xanthium strumarium); assay: Test B preemergence; conditions: scale 0 to 100, 0 no effect, 100 complete control
Outline: as §1

rice (Oryza saliva) = assay: Test B preemergence; conditions: Preemergence, Rate 500 g/ha; scale 0 to 100, 0 no effect, 100 complete control
Outline: as §1

[18] = test system: velvetleaf (Abutilon theophrasti); assay: Test B preemergence; conditions: Preemergence, Rate 500 g/ha; scale 0 to 100, 0 no effect, 100 complete control
Outline: as §1

[19] = test system: Surinam grass (Brachiaria decumbens); assay: Test B preemergence; conditions: scale 0 to 100, 0 no effect, 100 complete control
Outline: as §1

[20] = test system: giant foxtail (Setaria faberii); assay: Test B preemergence; conditions: scale 0 to 100, 0 no effect, 100 complete control
Outline: as §1

[21] = test system: barnyardgrass (Echinochloa crus-galli); assay: Test B preemergence; conditions: scale 0 to 100, 0 no effect, 100 complete control
Outline: as §1

[22] = test system: crabgrass (Digitaria sanguinalis); assay: Test B preemergence; conditions: scale 0 to 100, 0 no effect, 100 complete control
Outline: as §1

Sunflower = assay: Test C preemergence; conditions: Rate 125 g/ha, scale 0 to 100, 0 no effect, 100 complete control
Nightshade = assay: Test C preemergence; conditions: Rate 250 g/ha, visual evaluation after 12 to 14 days
[23] = Rate 125 g/ha, scale 0 (no effect) to 100 (complete control)
[24] = Rate 500 g/ha, scale 0 to 100, 0 is no effect, 100 is complete control

Question: What does the source list for CC(C)(C)c1ccn(C2SCN(c3cccc(OC(F)F)c3)C2=O)n1 (stereo not shown) [Compound 36]?
Answer: Plant response rating, Morningglory [1, 23]: 30; Plant response rating, Morningglory [1, 24]: 40; Plant response rating, Pigweed [2, 23]: 90; Plant response rating, Pigweed [2, 24]: 100; Plant response rating, Corn (corn (Zea mays) [3]; [23]): 0; Plant response rating, Corn (corn (Zea mays) [3]; [24]): 70; Plant response rating, Lambsquarters [4, 23]: 90; Plant response rating, Lambsquarters [4, 24]: 100; Plant response rating, Blackgrass [5, 23]: 0; Plant response rating, Blackgrass [5, 24]: 0; Plant response rating, Cocklebur [6, 23]: 20; Plant response rating, Cocklebur [6, 24]: 60; Plant response rating, Wheat [7, 23]: 0; Plant response rating, Wheat [7, 24]: 0; Plant response rating, Velvetleaf [8, 23]: 0; Plant response rating, Velvetleaf [8, 24]: 60; Plant response rating, Wild Oat (wild oat (Avena fatua); [23]): 0; Plant response rating, Wild Oat (wild oat (Avena fatua); [24]): 20; Plant response rating, Surinam grass [9, 23]: 0; Plant response rating, Surinam grass [9, 24]: 50; Plant response rating, Foxtail, Giant [10, 23]: 60; Plant response rating, Foxtail, Giant [10, 24]: 90; Plant response rating, Barnyardgrass [11, 23]: 90; Plant response rating, Barnyardgrass [11, 24]: 100; Plant response rating, Crabgrass [12, 23]: 80; Plant response rating, Crabgrass [12, 24]: 100; Plant response rating, Morningglory [13]: 0; Plant response rating, Pigweed [14]: 100; Plant response rating, Corn (corn (Zea mays) [15]; Preemergence, Rate 500 g/ha): 0; Plant response rating, Corn (corn (Zea mays) [15]; preemergence, Rate 125 g/ha): 0; Plant response rating, Lambsquarters ([16]; Preemergence, Rate 500 g/ha): 100; Plant response rating, Lambsquarters ([16]; preemergence, Rate 125 g/ha): 100; Plant response rating, Cocklebur ([17]; Preemergence, Rate 500 g/ha): 0; Plant response rating, Cocklebur ([17]; preemergence, Rate 125 g/ha): 0; Plant response rating, Rice (rice (Oryza saliva)): 90; Plant response rating, Velvetleaf [18]: 0; Plant response rating, Surinam grass ([19]; Preemergence, Rate 500 g/ha): 100; Plant response rating, Surinam grass ([19]; preemergence, Rate 125 g/ha): 70; Plant response rating, Foxtail, Giant ([20]; Preemergence, Rate 500 g/ha): 100; Plant response rating, Foxtail, Giant ([20]; preemergence, Rate 125 g/ha): 100; Plant response rating, Barnyardgrass ([21]; Preemergence, Rate 500 g/ha): 100; Plant response rating, Barnyardgrass ([21]; preemergence, Rate 125 g/ha): 100; Plant response rating, Crabgrass ([22]; Preemergence, Rate 500 g/ha): 100; Plant response rating, Crabgrass ([22]; preemergence, Rate 125 g/ha): 100; Plant response rating, Sunflower (Sunflower): 0; Plant response rating (0 to 100), Nightshade (Nightshade): 90

Question: Which “Plant response rating, Morningglory” value [1, 23] does the source give for O=C1C(n2ccc(C3CCC3)n2)SCN1c1cccc(C(F)(F)F)c1 (stereo not shown) [Compound 37] here?
Answer: 20

Question: And the “Plant response rating, Morningglory” value [1, 24]?
Answer: 40

Question: What about the “Plant response rating, Pigweed” value [2, 23] of the same compound?
Answer: 20

Question: What about the “Plant response rating, Pigweed” value [2, 24] of the same compound?
Answer: 90

Question: And the “Plant response rating, Corn” value (corn (Zea mays) [3]; [23])?
Answer: 0

Question: What about the “Plant response rating, Corn” value (corn (Zea mays) [3]; [24]) of the same compound?
Answer: 20

Question: And the “Plant response rating, Lambsquarters” value [4, 23]?
Answer: 0

Question: What about the “Plant response rating, Lambsquarters” value [4, 24] of the same compound?
Answer: 90

Question: And the “Plant response rating, Blackgrass” value [5, 23]?
Answer: 0

Question: And the “Plant response rating, Blackgrass” value [5, 24]?
Answer: 0

Question: What about the “Plant response rating, Cocklebur” value [6, 23] of the same compound?
Answer: 10

Question: What about the “Plant response rating, Cocklebur” value [6, 24] of the same compound?
Answer: 30

Question: And the “Plant response rating, Wheat” value [7, 23]?
Answer: 0

Question: What about the “Plant response rating, Wheat” value [7, 24] of the same compound?
Answer: 0

Question: What about the “Plant response rating, Velvetleaf” value [8, 23] of the same compound?
Answer: 0

Question: And the “Plant response rating, Velvetleaf” value [8, 24]?
Answer: 0

Question: And the “Plant response rating, Wild Oat” value (wild oat (Avena fatua); [23])?
Answer: 0

Question: And the “Plant response rating, Wild Oat” value (wild oat (Avena fatua); [24])?
Answer: 0

Question: What about the “Plant response rating, Surinam grass” value [9, 23] of the same compound?
Answer: 0

Question: And the “Plant response rating, Surinam grass” value [9, 24]?
Answer: 0

Question: And the “Plant response rating, Foxtail, Giant” value [10, 23]?
Answer: 60

Question: And the “Plant response rating, Foxtail, Giant” value [10, 24]?
Answer: 80

Question: And the “Plant response rating, Barnyardgrass” value [11, 23]?
Answer: 80

Question: And the “Plant response rating, Barnyardgrass” value [11, 24]?
Answer: 100

Question: What about the “Plant response rating, Crabgrass” value [12, 23] of the same compound?
Answer: 0

Question: What about the “Plant response rating, Crabgrass” value [12, 24] of the same compound?
Answer: 100

Question: And the “Plant response rating, Morningglory” value [13]?
Answer: 0

Question: And the “Plant response rating, Pigweed” value [14]?
Answer: 100

Question: And the “Plant response rating, Corn” value (corn (Zea mays) [15]; Preemergence, Rate 500 g/ha)?
Answer: 0

Question: And the “Plant response rating, Corn” value (corn (Zea mays) [15]; preemergence, Rate 125 g/ha)?
Answer: 0

Question: What about the “Plant response rating, Lambsquarters” value ([16]; Preemergence, Rate 500 g/ha) of the same compound?
Answer: 100

Question: And the “Plant response rating, Lambsquarters” value ([16]; preemergence, Rate 125 g/ha)?
Answer: 100

Question: And the “Plant response rating, Cocklebur” value ([17]; preemergence, Rate 125 g/ha)?
Answer: 0

Question: And the “Plant response rating, Rice” value (rice (Oryza saliva))?
Answer: 0

Question: And the “Plant response rating, Velvetleaf” value [18]?
Answer: 0

Question: What about the “Plant response rating, Surinam grass” value ([19]; Preemergence, Rate 500 g/ha) of the same compound?
Answer: 0

Question: And the “Plant response rating, Surinam grass” value ([19]; preemergence, Rate 125 g/ha)?
Answer: 0

Question: And the “Plant response rating, Foxtail, Giant” value ([20]; Preemergence, Rate 500 g/ha)?
Answer: 100

Question: And the “Plant response rating, Foxtail, Giant” value ([20]; preemergence, Rate 125 g/ha)?
Answer: 40

Question: What about the “Plant response rating, Barnyardgrass” value ([21]; Preemergence, Rate 500 g/ha) of the same compound?
Answer: 100

Question: What about the “Plant response rating, Barnyardgrass” value ([21]; preemergence, Rate 125 g/ha) of the same compound?
Answer: 0

Question: And the “Plant response rating, Crabgrass” value ([22]; Preemergence, Rate 500 g/ha)?
Answer: 100

Question: What about the “Plant response rating, Crabgrass” value ([22]; preemergence, Rate 125 g/ha) of the same compound?
Answer: 0

Question: What about the “Plant response rating, Sunflower” value (Sunflower) of the same compound?
Answer: 0

Question: What about the “Plant response rating (0 to 100), Nightshade” value (Nightshade) of the same compound?
Answer: 0
